Where two headings read alike, the source gives them in different places.
Columns and labels:
[1] = dog, in vivo
[2] = dog, in vivo; remark: listed apart in the source
Method: The dose of administered leuprolide acetate mid the measurement of plasma leuprolide concentration are the same as described for FIG. 1.
In this and subsequent Examples, bioavailability is calculated and expressed either in terms of Area Under Curve (AUC) or as percent (%) bioavailability. AUC is determined by calculating the area under the curve of plots of time (X-axis) versus plasma concentration (Y-axis) of the administered polypeptide. Typically, AUC is determined over a 6 (0-6) or 8 (0-8) hour period. Percent bioavailability is calculated as the ratio [formula] Increases in AUC and/or bioavailability indicate increased bioavailability of the administered polypeptide.
In one such composition the pH value was adjusted to a value of about 7.0 with NaOH.
The liquid compositions were sublingually administered to dogs (0.1 ml/10 kg body wt) and the plasma levels of leuprolide measured over 8 hours.

- bioavailability, AUC 0-8 hours vs peppermint oil concentration (FIG. 4) [1]: increases the bioavailability
- Percent Bioavailability ([2]; pH 5.6): 24.5%
- Percent Bioavailability ([2]; pH 7): 2.7%
Structure (SMILES): CCNC(=O)[C@@H]1CCCN1C(=O)[C@H](CCCNC(=N)N)NC(=O)[C@H](CC(C)C)NC(=O)[C@@H](CC(C)C)NC(=O)[C@H](Cc1ccc(O)cc1)NC(=O)[C@H](CO)NC(=O)[C@H](Cc1c[nH]c2ccccc12)NC(=O)[C@H](Cc1c[nH]cn1)NC(=O)[C@@H]1CCC(=O)N1 [leuprolide acetate, 5-oxo-L-prolyl-L-histidyl-L-tryptophanyl-L-seryl-L-tyrosyl-D-leueyl-L-leueyl-L-arginyl-L-prolyl-ethylamide]
- bioavailability vs benzoic acid concentration (FIG. 3) [2]: directly proportional to benzoic acid concentration

From patent publication US5487898A, “Compositions and method for the sublingual or buccal administration therapeutic agents” (Abbott Laboratories, priority 1994, dated 1996)
